Laboratory results: BindingDB's records for doi:10.1016/S1074-5521(01)00045-X (The Scripps Research Institute, 2001)
Positions count from the first letter of the chain named.

What was measured:
Experiment in all cases: Inhibition Assay
[1] = biological target: T1, Beta-hexosaminidase subunit beta (Homo sapiens, UniProt P07686)
T1 sequence (P07686 whole entry): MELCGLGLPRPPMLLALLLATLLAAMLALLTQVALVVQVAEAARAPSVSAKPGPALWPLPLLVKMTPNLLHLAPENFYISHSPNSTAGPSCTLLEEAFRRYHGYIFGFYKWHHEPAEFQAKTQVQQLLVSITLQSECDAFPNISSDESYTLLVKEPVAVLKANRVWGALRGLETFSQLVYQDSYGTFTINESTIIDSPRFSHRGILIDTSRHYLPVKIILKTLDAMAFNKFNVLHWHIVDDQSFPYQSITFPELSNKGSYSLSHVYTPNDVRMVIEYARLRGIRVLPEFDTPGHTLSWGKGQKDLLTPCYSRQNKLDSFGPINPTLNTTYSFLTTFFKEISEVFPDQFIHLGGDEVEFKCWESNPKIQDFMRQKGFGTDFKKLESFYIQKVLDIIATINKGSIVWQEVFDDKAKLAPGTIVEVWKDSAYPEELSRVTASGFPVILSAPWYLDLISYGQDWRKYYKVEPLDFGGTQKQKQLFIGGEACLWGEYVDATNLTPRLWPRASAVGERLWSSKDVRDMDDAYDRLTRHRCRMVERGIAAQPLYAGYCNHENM
Description: (§1) Hexosaminidase activity assay was measured by fluorometry, VersaFluor Fluorometer from Bio-Rad.

[2] = biological target: T2, Beta-hexosaminidase subunit beta (Homo sapiens, UniProt P07686); remark: listed apart in the source
T2 sequence (P07686 whole entry): T1 sequence (P07686 whole entry) with L62S
Description: as §1

[3] = biological target: T3, Beta-hexosaminidase subunit alpha (Homo sapiens, UniProt P06865)
T3 sequence (P06865 whole entry): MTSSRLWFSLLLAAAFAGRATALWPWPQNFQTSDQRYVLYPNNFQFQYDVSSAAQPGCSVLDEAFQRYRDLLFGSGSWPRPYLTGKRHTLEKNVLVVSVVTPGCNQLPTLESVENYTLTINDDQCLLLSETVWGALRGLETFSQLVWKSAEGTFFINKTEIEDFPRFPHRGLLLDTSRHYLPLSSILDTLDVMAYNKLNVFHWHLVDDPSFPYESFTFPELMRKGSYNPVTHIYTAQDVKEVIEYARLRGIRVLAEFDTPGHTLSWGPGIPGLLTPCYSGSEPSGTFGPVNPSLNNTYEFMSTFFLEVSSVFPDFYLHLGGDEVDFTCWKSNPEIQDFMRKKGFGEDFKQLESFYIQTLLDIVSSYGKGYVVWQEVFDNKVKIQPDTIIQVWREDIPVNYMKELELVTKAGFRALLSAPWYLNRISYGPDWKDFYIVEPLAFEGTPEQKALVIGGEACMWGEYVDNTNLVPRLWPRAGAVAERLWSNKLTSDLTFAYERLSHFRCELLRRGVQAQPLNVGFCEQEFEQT
Description: as §1

Ki [1]	Ki [2]	Ki [3]	SMILES
1200 nM	–	–	CC(=O)N[C@H]1CN[C@H](CO)[C@@H](O)[C@@H]1O
–	240 nM	–	CC(=O)N[C@@H]1N[C@H](CO)[C@@H](O)[C@@H]1O [Iminocyclitol, 1]
–	65 nM	–	CC(=O)N[C@H]1[C@@H](O)[C@H](O)[C@@H](CO)N1C [Iminocyclitol, 2]
–	40 nM	–	CC(=O)N[C@H]1N[C@H](CO)[C@@H](O)[C@@H]1O [Iminocyclitol, 3]
–	24 nM	–	CC(=O)N[C@@H]1[C@@H](O)[C@H](O)[C@@H](CO)N1C [Iminocyclitol, 4]
–	860 nM	–	CC(=O)NC1CN(C)C(CO)C(O)C1O (stereo not given) [Iminocyclitol, 6]
–	5000 nM	100 nM	CC(=O)N[C@@H]1[C@@H](O)[C@H](O)[C@@H](OS(=O)(=O)O)N1C [Iminocyclitol, 8]
–	100000 nM	10000 nM	CC1=NC2C(OC(OS(=O)(=O)O)C(O)C2O)S1 (stereo not given) [Iminocyclitol, 10]
